Test [1] relates to Rattus norvegicus. Description: Effect of compound on total full contralateral turns at the dose of 0.3 mg/Kg administered perorally in ungerstedt rat model. The format is functional.
Test [2] deals with Rattus norvegicus. As to the kind of experiment: Effect of compound on total full contralateral turns at the dose of 1.0 mg/Kg administered perorally in ungerstedt rat model. The format is functional.
Test [3] concerns Rattus norvegicus. Description: Effect of compound on total full contralateral turns at the dose of 10 mg/Kg administered perorally in ungerstedt rat model; […]. The class given is functional, organism-based.
For test [4], the target named is D(2) dopamine receptor (Homo sapiens, UniProt P14416). As to the kind of experiment: Tested for percent intrinsic activity towards Dopamine receptor D2 in CHO cells. The format is cell-based.
D(2) dopamine receptor (Homo sapiens, UniProt P14416), sequence (P14416 whole entry): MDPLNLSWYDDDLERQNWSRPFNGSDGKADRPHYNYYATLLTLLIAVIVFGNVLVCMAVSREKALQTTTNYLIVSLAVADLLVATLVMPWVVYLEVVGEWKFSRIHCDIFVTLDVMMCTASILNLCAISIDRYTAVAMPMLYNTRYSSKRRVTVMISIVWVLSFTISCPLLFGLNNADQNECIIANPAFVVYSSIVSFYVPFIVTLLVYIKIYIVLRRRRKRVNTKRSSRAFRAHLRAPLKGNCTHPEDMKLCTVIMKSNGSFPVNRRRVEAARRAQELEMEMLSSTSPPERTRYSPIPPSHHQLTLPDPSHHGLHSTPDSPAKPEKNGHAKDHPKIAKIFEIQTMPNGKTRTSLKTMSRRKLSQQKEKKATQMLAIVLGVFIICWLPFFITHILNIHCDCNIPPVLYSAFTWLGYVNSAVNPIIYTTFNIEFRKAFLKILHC
The target in test [5] is D(2) dopamine receptor (Rattus norvegicus, UniProt P61169). As to the kind of experiment: In vitro binding affinity towards Dopamine receptor D2.
D(2) dopamine receptor (Rattus norvegicus, UniProt P61169), sequence (P61169 whole entry): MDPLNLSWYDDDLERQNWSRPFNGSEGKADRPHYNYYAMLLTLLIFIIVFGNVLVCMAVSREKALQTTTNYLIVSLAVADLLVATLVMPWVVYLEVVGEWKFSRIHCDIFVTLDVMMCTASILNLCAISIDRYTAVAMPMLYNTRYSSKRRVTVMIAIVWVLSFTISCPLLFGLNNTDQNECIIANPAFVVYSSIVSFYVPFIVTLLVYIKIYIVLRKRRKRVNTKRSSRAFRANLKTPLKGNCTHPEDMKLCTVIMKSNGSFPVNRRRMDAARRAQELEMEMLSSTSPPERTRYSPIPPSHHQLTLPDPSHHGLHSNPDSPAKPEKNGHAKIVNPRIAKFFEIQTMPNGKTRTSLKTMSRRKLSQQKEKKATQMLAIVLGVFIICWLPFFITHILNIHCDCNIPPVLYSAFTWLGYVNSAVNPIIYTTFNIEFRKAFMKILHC
Test [6] relates to Rattus norvegicus. As to the kind of experiment: Effect of compound on total full contralateral turns at the dose of 10 mg/Kg administered perorally in ungerstedt rat model. The class given is functional.
Another test addresses D(1A) dopamine receptor (Rattus norvegicus, UniProt P18901). As to the kind of experiment: In vitro binding affinity towards Dopamine receptor D1.

Activity calls are given as the source filed them. The rule behind the calls is not given here.

D(1A) dopamine receptor, sequence (P18901 whole entry): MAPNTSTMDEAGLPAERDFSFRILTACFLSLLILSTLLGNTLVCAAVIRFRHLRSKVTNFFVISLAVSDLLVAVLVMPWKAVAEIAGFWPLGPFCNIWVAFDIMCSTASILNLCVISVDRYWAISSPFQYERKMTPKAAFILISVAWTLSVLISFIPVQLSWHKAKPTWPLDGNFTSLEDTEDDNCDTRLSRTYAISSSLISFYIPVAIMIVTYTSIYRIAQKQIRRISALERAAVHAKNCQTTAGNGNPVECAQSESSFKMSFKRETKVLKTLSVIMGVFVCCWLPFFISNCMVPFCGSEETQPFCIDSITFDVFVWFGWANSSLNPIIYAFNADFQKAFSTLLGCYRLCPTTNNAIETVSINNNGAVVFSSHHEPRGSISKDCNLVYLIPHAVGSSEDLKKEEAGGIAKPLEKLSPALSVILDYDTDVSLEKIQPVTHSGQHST

For `CCCN(CCC)C1CCC2=C(CCC/C2=N\OCC)C1` (stereo unspecified), the Turns is listed as 176 with Rattus norvegicus [1] and 4217 in the test on Rattus norvegicus [2].
As for `CCCCO/N=C1\CCCC2=C1CCC(N(CCC)CCC)C2` (stereo unspecified), in the test on Rattus norvegicus [2], the Turns was 1364.
As to `CCCN(CCC)C1CCC2=C(CCC/C2=N\OC(=O)c2ccc(C)cc2)C1` (stereo unspecified), the Turns result in the test with Rattus norvegicus [3] was “inactive”.
As to `CCCN(CCC)C1CCC2=C(CCC/C2=N\OC)C1` (racemic), the half-maximal effective concentration (EC50) on D(2) dopamine receptor [4] was over 1 µM. For the same compound, the Turns in the test on Rattus norvegicus [1] worked out at 1007; in the test with Rattus norvegicus [2], 5295. Also, the Ki on D(2) dopamine receptor [5] is 2.3 µM.
Take `CCCN(CCC)[C@H]1CCC2=C(CCC/C2=N\OC)C1`: the Turns with Rattus norvegicus [6] is given as 2014.
Take `CCCN(CCC)[C@H]1CCC2=C(CCC/C2=N\OC(C)=O)C1`: the Turns in the test with Rattus norvegicus [1] is reported as 2007.
`CCCN(CCC)C1CCC2=C(CCC/C2=N\OC(=O)C(C)(C)C)C1` (stereo unspecified) displayed a Turns in the test with Rattus norvegicus [1] of 187.
`CCCN(CCC)C1CCC2=C(CCC/C2=N\OCc2ccccc2)C1` (stereo unspecified): the Turns in the test with Rattus norvegicus [1] is on record as 1652; with Rattus norvegicus [2], 4702.
As for `CCCN(CCC)C1CCC2=C(CCC/C2=N\OC(=O)C(C)C)C1` (stereo unspecified), the Turns in the test with Rattus norvegicus [1] was determined as 152.
In the test with Rattus norvegicus [1], `CCCN(CCC)C1CCC2=C(CCC/C2=N\OC(C)=O)C1` (stereo unspecified) yielded a Turns of 365.
For the compound `CCCO/N=C1\CCCC2=C1CCC(N(CCC)CCC)C2` (stereo unspecified), the results for the Turns in the test with Rattus norvegicus [1] and in the test with Rattus norvegicus [2] were 943 and 5406, respectively.
With `CCCN(CCC)C1CCC2=C(CCC/C2=N\OC(C)(C)C)C1` (stereo unspecified), the Turns in the test on Rattus norvegicus [2] came out at 2118.
The same measure, in the same setting: the value for `CCCN(CCC)C1CCC2=C(CCC/C2=N\OC(=O)c2ccccc2)C1` (stereo unspecified) was 2208.
For the compound `CCCN(CCC)C1CCc2c(ccc(O)c2O)C1` (racemic), the Ki is 0.17 µM on D(1A) dopamine receptor and 0.003 µM at D(2) dopamine receptor [5].

In general, EC50 refers to the concentration that produces a half-maximal response. Low readings indicate an effect from little substance, high ones a need for much substance. For orientation: Ki means the equilibrium dissociation constant of an inhibitor or competing ligand from its target.
